Results reported in patent US10947205B2, “Oxazolidinone compounds and methods of use thereof as antibacterial agents” (priority 2015, dated 2021).
In brackets after ≈: the same amount, converted by molar mass. Where two headings read alike, the source gives them in different places.

What was measured:
[1] = tested on: Mycobacterium tuberculosis (Mtb); experiment: microbe, parasite or virus in culture; format: cell-based, Mycobacterium tuberculosis H37Rv (Mtb-GFP); conditions: 168 h
[2] = tested on: Staphylococcus aureus (methicillin resistant, MB5393, COL); experiment: microbe, parasite or virus in culture; format: cell-based; conditions: MRSA, 22 h, read-out: MRSA COL MITC95 μM
Protocol: Inhibition of Staphylococcus aureus (methicillin resistant, MB5393, COL) growth was assessed in cation adjusted Mueller Hinton II broth (CAMHB) in 384-well microtiter plates. Bacteria were dispensed into microtiter plates at approximately 5×10^5 actively growing cells in 49 μL volumes per well. Cells were exposed to 2-fold serial dilutions of compounds from 200 μM to 0.195 μM and growth compared to drug-free control. Compound dilutions were prepared in 100% dimethylsulfoxide and added to microtiter plates in 1 μL volumes per well. Full growth control wells contained dimethylsufoxide and bacteria. No growth control wells contained dimethysulfoxide and CAMHB but no bacteria. Growth inhibition was assessed after a 22-hour growth period by measuring optical density using a spectrophotometer. The lowest concentration of test compound required to inhibit 95% of the growth of the bacteria was defined as the MITC95. All studies were done in a BSL2 facility.

[3] = tested on: mitochondrial protein synthesis in HepG2 cells (COX-I / SDH-A); experiment: Mitochondrial protein synthesis assay; format: cell-based; conditions: Homo sapiens, read-out: MPS IC50_μM
Protocol: (§1) Inhibition of mitochondrial protein synthesis was assessed in HepG2 cells by comparing the levels of two subunits of oxidative phosphorylation enzyme complexes, subunit I of Complex IV (COX-I) and the 70 kDa subunit of Complex II (SDH-A). COX-I is mitochondrial DNA encoded and SDH-A is nuclear DNA encoded. HepG2 cells were seeded in 96-well collagen coated plates at 8,000 cells per well and exposed to 2-fold serial dilutions of compounds from 100 LM to 6.25 μM. Microtiter plates were incubated for approximately 5 replication cycles (4 days) prior to assessment of protein levels using a kit as described by the manufacturer (ab 110217 MitoBiogenesis In Cell ELISA Kit, Abcam, Cambridge, Mass.). Inhibition of mitochondrial protein synthesis was expressed as a ratio of COX-1 to SDH-A levels.
as §1, with “μM” for “LM”

[4] = pH 6.8, read-out: Mtb Cho MITC95_μM
[5] = pH 6.8, read-out: Mtb Glu MITC95_μM
[6] = 96 h, HepG2 cells, 4 days, ratio of COX-1 to SDH-A levels

Row | SMILES | MIC [1, 4] [µM] | MIC [1, 5] [µM] | MIC [2] [µM] | IC50 [3, 6] [µM] | IC50 ([3]; HepG2, 96 h) [µM]
1 | NC[C@H]1CN(c2cc(F)c(N3CCOCC3)c(F)c2)C(=O)O1 [Example 59, (S)-5-(aminomethyl)-3-(3,5-difluoro-4-morpholinophenyl)oxazolidin-2-one] | 0.39 (≈ 0.122 µg/mL) | 0.09 (≈ 0.0282 µg/mL) | 200 (≈ 62.7 µg/mL) | > 20 | –
2 | CSc1ccc(-c2ccc(N3C[C@H](Cn4cnnn4)OC3=O)cc2F)cc1 [Example 44, (5R)-3-[2-fluoro-4′-(methylsulfanyl)biphenyl-4-yl]-5-(1H-tetrazol-1-ylmethyl)-1,3-oxazolidin-2-one] | 0.04 (≈ 0.0154 µg/mL) | 0.19 (≈ 0.0732 µg/mL) | 200 (≈ 77.1 µg/mL) | > 20 | –
3 | N#Cc1ccc(-c2ccc(N3C[C@H](CN)OC3=O)cc2F)cc1 [Example 18, 4′-[(5S)-5-(aminomethyl)-2-oxo-1,3-oxazolidin-3-yl]-2′-fluorobiphenyl-4-carbonitrile] | 0.09 (≈ 0.028 µg/mL) | 0.04 (≈ 0.0125 µg/mL) | 50 (≈ 15.6 µg/mL) | > 20 | –
4 | NC[C@H]1CN(c2ccc(-c3ccn[nH]3)c(F)c2)C(=O)O1 [Example 16, (5S)-5-(aminomethyl)-3-[3-fluoro-4-(1H-pyrazol-5-yl)phenyl]-1,3-oxazolidin-2-one] | 0.39 (≈ 0.108 µg/mL) | 0.19 (≈ 0.0525 µg/mL) | 200 (≈ 55.3 µg/mL) | > 20 | –
5 | CS(=O)(=O)c1ccc(-c2ccc(N3C[C@H](CN)OC3=O)cc2F)cc1 [Example 4, (5S)-5-(aminomethyl)-3-[2-fluoro-4′-(methylsulfonyl)biphenyl-4-yl]-1,3-oxazolidin-2-one] | 0.09 (≈ 0.0328 µg/mL) | 0.04 (≈ 0.0146 µg/mL) | 200 (≈ 72.9 µg/mL) | 22 | –
6 | NC[C@H]1CN(c2ccc(-c3cnn4ncccc34)c(F)c2)C(=O)O1 [Example 38, (5S)-5-(aminomethyl)-3-(3-fluoro-4-pyrazolo[1,5-b]pyridazin-3-ylphenyl)-1,3-oxazolidin-2-one] | 0.39 (≈ 0.128 µg/mL) | 0.14 (≈ 0.0458 µg/mL) | 200 (≈ 65.5 µg/mL) | > 20 | –
7 | CSc1ccc(-c2ccc(N3C[C@H](Cn4occc4=O)OC3=O)cc2F)cc1 [Example 50, (R)-2-((3-(2-fluoro-4′-(methylthio)-[1,1′-biphenyl]-4-yl)-2-oxooxazolidin-5-yl)methyl)isoxazol-3(2H)-one] | 0.58 (≈ 0.232 µg/mL) | 0.29 (≈ 0.116 µg/mL) | 200 (≈ 80.1 µg/mL) | > 20 | –
8 | CC(C)(C)OC(=O)N1CC=C(c2ccc(N3C[C@H](CN)OC3=O)cc2F)CC1 [Example 26, tert-butyl 4-{4-[(5S)-5-(aminomethyl)-2-oxo-1,3-oxazolidin-3-yl]-2-fluorophenyl}-3,6-dihydropyridin-1(2H)-carboxylate] | 1.5 (≈ 0.587 µg/mL) | 0.78 (≈ 0.305 µg/mL) | 200 (≈ 78.3 µg/mL) | > 20 | –
9 | CC(=O)NC[C@H]1CN(c2ccc(N3CCn4ncnc4C3)cc2)C(=O)O1 [Example 42, (S)—N-((3-(4-(5,6-dihydro-[1,2,4]triazolo[1,5-a]pyrazin-7(8H)-yl)phenyl)-2-oxooxazolidin-5-yl)methyl)acetamide] | 1.5 (≈ 0.535 µg/mL) | 1.5 (≈ 0.535 µg/mL) | 200 (≈ 71.3 µg/mL) | – | > 20
10 | O=C1O[C@@H](Cn2ccnn2)CN1c1ccc(-c2ccc(N3CCNCC3)nc2)c(F)c1 [Example 54, (R)-5-((1H-1,2,3-triazol-1-yl)methyl)-3-(3-fluoro-4-(6-(piperazin-1-yl)pyridin-3-yl)phenyl)oxazolidin-2-one] | 0.215 (≈ 0.091 µg/mL) | 0.24 (≈ 0.102 µg/mL) | 2.34 (≈ 0.991 µg/mL) | > 20 | –
11 | CC(=O)NC[C@H]1CN(c2ccc(N3CCOCC3)c(F)c2)C(=O)O1 [linezolid, reference compound] | 3.14 (≈ 1.06 µg/mL) | 4.58 (≈ 1.55 µg/mL) | 6.25 (≈ 2.11 µg/mL) | 8 | –
12 | CS(=O)(=O)Nc1ccc(-c2ccc(N3C[C@H](CN)OC3=O)cc2F)cc1 [Example 17, N-{4′-[(5S)-5-(aminomethyl)-2-oxo-1,3-oxazolidin-3-yl]-2′-fluorobiphenyl-4-yl}methanesulfonamide] | 0.29 (≈ 0.11 µg/mL) | 0.09 (≈ 0.0341 µg/mL) | 200 (≈ 75.9 µg/mL) | > 20 | –
13 | NC[C@H]1CN(c2ccc(-c3cccnc3)c(F)c2)C(=O)O1 [Example 24, (5S)-5-(aminomethyl)-3-(3-fluoro-4-pyridin-3-ylphenyl)-1,3-oxazolidin-2-one] | 0.09 (≈ 0.0259 µg/mL) | 0.04 (≈ 0.0115 µg/mL) | 200 (≈ 57.5 µg/mL) | > 20 | –
14 | N#Cc1cccc(-c2ccc(N3C[C@H](CN)OC3=O)cc2F)c1 [Example 13, 4′-[(5S)-5-(aminomethyl)-2-oxo-1,3-oxazolidin-3-yl]-2′-fluorobiphenyl-3-carbonitrile] | 0.19 (≈ 0.0592 µg/mL) | 0.19 (≈ 0.0592 µg/mL) | 200 (≈ 62.3 µg/mL) | > 20 | –
15 | Cn1cc(-c2ccc(N3C[C@H](CN)OC3=O)cc2F)cn1 [Example 37, (5S)-5-(aminomethyl)-3-[3-fluoro-4-(1-methyl-1H-pyrazol-4-yl)phenyl]-1,3-oxazolidin-2-one] | 0.39 (≈ 0.113 µg/mL) | 0.29 (≈ 0.0842 µg/mL) | 200 (≈ 58.1 µg/mL) | > 20 | –
